Patent US5770420A, “Methods and products for the synthesis of oligosaccharide structures on glycoproteins, glycolipids, or as free molecules, and for the isolation of cloned genetic sequences that determine these structures” (The Regents of the University of Michigan, priority 1995, dated 1998)
Where two headings read alike, the source gives them in different places. Values belong to the molecule of their own block, whether it stands above or below them.

Key:
[1] = tested on: chimera Fuc-TC20: Fuc-TVI (1-98) plus Fuc-TIII (100-160) plus Fuc-TVI (160-359); details: acceptor 0.25-167 mM, 3 mM GDP-[14C]fucose (so in the source), pH 6.2, 37° C.
Procedure: (§1) Extracts for α(1,3)Fuc-T assays were prepared by harvesting COS-7 cells 72 hours after transfection, and solubilizing the cell pellets in 1% Triton X-100 (Kukowska-Latallo, J. F., et al (1990) Genes Devel., vol. 4, 1288-1303; Lowe, J. B., et al (1991) J. Biol. Chem., vol. 266, 17467-17477; Weston, B. W., et al (1992) J. Biol. Chem., vol. 267, 4152-4160; Weston, B. W., et al (1992) J. Biol. Chem. vol. 267, 24575-24584). Cell extract protein contents were determined with a micro BCA protein assay reagent (Pierce). Fucosyltransferase assays were performed in a final volume of 20 μl, and contained 25 mM sodium cacodylate (pH 6.2), 5 mM ATP, 10 mM L-fucose, 20 mM MnCl2 and 3 mM GDP-[^14 C]fucose. Cell extract protein concentration was varied to approximate linear reaction rate conditions (net [14C]-fucose incorporation rate of a less than twenty percent of total input GDP-[^14 C]fucose radioactivity). […] Reactions were incubated at 37° C. for one hour and were terminated by the addition of 20 μl ethanol, followed by dilution with […] water. The total radioactivity in each reaction was determined by subjecting an aliquot to scintillation counting. To assess the amount of radioactive fucose incorporated into product, an additional aliquot was applied to a Dowex 1×2-400 column in the formate form (Sasaki, K., et al (1994) J. Biol. Chem., vol. 269, 14730-14737; Natsuka, S., et al (1994) J. Biol. Chem., vol. 269, 16789-16794; Macher, B. A., et al (1991) Glycobiology, vol. 1, 577-584; Natsuka, S., and Lowe, J. B. (1994) Curr. Opin. Struct. Biol., vol. 4, 683-691). The flow through fraction plus an additional 2 ml of a water column "wash" was collected, pooled and subjected to scintillation counting. Control assays containing no added acceptor substrate were also completed in parallel.

[2] = tested on: chimera Fuc-TC19: Fuc-TIII (1-99) plus Fuc-TVI (99-159) plus Fuc-TIII (161-361); details: acceptor 0.25-167 mM, 3 mM GDP-[14C]fucose (so in the source), pH 6.2, 37° C.
Procedure: as §1

[3] = tested on: chimera Fuc-TC4: Fuc-TVI (1-159) plus Fuc-TIII (161-361); details: acceptor 0.25-167 mM, 3 mM GDP-[14C]fucose (so in the source), pH 6.2, 37° C.
Procedure: as §1

[4] = tested on: chimera Fuc-TC18: Fuc-TVI (1-85) plus Fuc-TIII (87-160) plus Fuc-TVI (160-359); details: acceptor 0.25-167 mM, 3 mM GDP-[14C]fucose (so in the source), pH 6.2, 37° C.
Procedure: as §1

[5] = tested on: chimera Fuc-TC2: Fuc-TIII (1-160) plus Fuc-TVI (160-359); details: acceptor 0.25-167 mM, 3 mM GDP-[14C]fucose (so in the source), pH 6.2, 37° C.
Procedure: as §1

IgG-Sepharose [6] = assay: batch binding of conditioned medium to IgG-Sepharose, enzyme activity assayed
[7] = molecular target: human Fuc-TVI (α(1,3)fucosyltransferase), wild type, SEQ ID NO:14 (Homo sapiens, UniProt P51993); details: read-out: Apparent Km LNB-I; acceptor 0.25-167 mM, 3 mM GDP-[14C]fucose (so in the source), pH 6.2, 37° C.
Procedure: as §1

IgG-Sepharose [8] = assay: batch binding of conditioned medium to IgG-Sepharose, washed matrix assayed for enzyme activity

Molecule: CC(=O)N[C@H]1C(O)O[C@H](CO)[C@@H](O[C@@H]2O[C@H](CO)[C@H](O)[C@H](O)[C@H]2O)[C@@H]1O (stereo partly shown) [LacNAc, N-acetyllactosamine]
Km ([1]; read-out: Apparent Km LacNAc): > 50 mM | Km ([2]; read-out: Apparent Km LacNAc): 1.1 mM | Km ([3]; read-out: Apparent Km LacNAc): 5.8 mM | Km ([4]; read-out: Apparent Km LacNAc): > 50 mM | Km ([5]; read-out: Apparent Km LacNAc): > 50 mM

Molecule: CC(=O)N[C@H]1C(O)O[C@H](CO)[C@@H](O)[C@@H]1O[C@@H]1O[C@H](CO)[C@H](O)[C@H](O)[C@H]1O (stereo partly shown) [LNB-I, lacto-N-biose I]
Km ([1]; read-out: Apparent Km LNB-I): > 50 mM | Km [7]: > 50 mM | Km ([2]; read-out: Apparent Km LNB-I): > 50 mM | Km ([3]; read-out: Apparent Km LNB-I): > 50 mM | Km ([4]; read-out: Apparent Km LNB-I): > 50 mM | Km ([5]; read-out: Apparent Km LNB-I): > 50 mM

Molecule: protein A-fucosyltransferase fusion protein encoded by pPROTA-α(1,3/1,4)FTc (from UniProt P02976) (enzyme)
percent of activity recovered from the matrix after exhaustive washing (IgG-Sepharose [8]): 24% | percent of released activity retained (IgG-Sepharose [6]): 100%

Results, then the molecule that gave them:

percent of released activity retained (IgG-Sepharose [6]): 100%
Molecule: protein A-Fuc-TV fusion protein encoded by pPROTA-Fuc-TVc (from UniProt P02976) (enzyme)

percent of released activity retained (IgG-Sepharose [6]): 100%
Molecule: protein A-α(1,2)fucosyltransferase fusion protein encoded by pPROTA-α(1,2)FTc (from UniProt P02976) (enzyme)

percent of released activity retained (IgG-Sepharose [6]): 100%
Molecule: protein A-Fuc-TIV fusion protein encoded by pPROTA-α(Fuc-TIV)c (from UniProt P02976) (enzyme)
